From paper PMC7413254 (Nature Communications, 2020)
Where “and” joins values, the source holds several entries; their conditions need not be identical. Equal entries are not always repeated.

Legend:
PfCRT^Dd2 = PfCRT^Dd2 (Plasmodium falciparum, UniProt Q9N623, A220S/I356T/K76T/M74I/N326S/N75E/Q271E/R371I); test: cell-based; type: cell-based; conditions: for Total [3H]CQ transport, trans-stimulation by injected solute / Trans-stimulation data: total [3H]CQ transport: PfCRTDd2 oocytes; for Total [3H]CQ transport, trans-stimulation by injected solute / Trans-stimulation data: total [3H]CQ transport / Trans-stimulation: total [3H]CQ transport, PfCRTDd2 oocytes: footnote b: highest intracellular concentration tested was 30 mM (solubility); for Trans-stimulation data: total [3H]CQ transport: normalised to the oocyte type control (control = 100); for PfCRT-mediated [3H]CQ transport, trans-stimulation by injected solute, PfCRTDd2 / Trans-stimulation data: PfCRT-mediated [3H]CQ transport: footnote b: due to solubility the highest intracellular concentration tested was 30 mM; for PfCRT-mediated [3H]CQ transport, trans-stimulation by injected solute, PfCRTDd2: background subtracted; for Trans-stimulation data: PfCRT-mediated [3H]CQ transport: normalised to the oocyte type control = 100; for Trans-stimulation: total [3H]CQ transport, PfCRTDd2 oocytes: mean ± SEM, SEM
How it was run: (§1)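 Transport measured in Xenopus oocytes expressing the transporters, 1.5 h at 27.5 °C in ND96 pH 5.5 unless noted. For trans-stimulation, VF-6 injected in 25 nL ND96 at pH 5.0–7.0 or Na^+-free (choline) buffer; intracellular levels based on ~400 nL oocyte volume. Ten oocytes per treatment, ≥4 experiments.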

PfCRT^3D7 = PfCRT^3D7 (Plasmodium falciparum, UniProt Q8IBZ9); test: cell-based; type: cell-based; conditions: for Trans-stimulation data: PfCRT-mediated [3H]CQ transport: 2nd of 6 trans-stimulation columns, footnote b: due to solubility the highest intracellular concentration tested was 30 mM, normalised to the oocyte type control = 100; for Total [3H]CQ transport, trans-stimulation by injected solute / Trans-stimulation data: total [3H]CQ transport: PfCRT3D7 oocytes; for Total [3H]CQ transport, trans-stimulation by injected solute / Trans-stimulation data: total [3H]CQ transport / Trans-stimulation: total [3H]CQ transport, PfCRT3D7 oocytes: footnote b: highest intracellular concentration tested was 30 mM (solubility); for Trans-stimulation data: total [3H]CQ transport: normalised to the oocyte type control (control = 100); for Trans-stimulation: total [3H]CQ transport, PfCRT3D7 oocytes: mean ± SEM, SEM
How it was run: as §1

PfNT1 = target: T1, PfNT1 (Plasmodium falciparum, UniProt Q8IDM6); test: cell-based; type: cell-based; conditions: footnote b: highest intracellular concentration tested was 30 mM (solubility); for Total [3H]CQ transport, trans-stimulation by injected solute / Trans-stimulation data: total [3H]CQ transport: PfNT1 oocytes; for Trans-stimulation data: total [3H]CQ transport: normalised to the oocyte type control (control = 100); for Trans-stimulation: total [3H]CQ transport, PfNT1 oocytes: mean ± SEM, SEM
T1 construct: expressed in transfected cells; host or cells: Xenopus laevis oocytes (stage V-VI), cRNA-injected
How it was run: as §1

PfCRT^Ecu1110 = PfCRT^Ecu1110 (Plasmodium falciparum, UniProt Q9N623, A220S/I356L/K76T/N326D); test: cell-based; type: cell-based; conditions: for Total [3H]CQ transport, trans-stimulation by injected solute / Trans-stimulation data: total [3H]CQ transport: PfCRTEcu1110 oocytes; for Total [3H]CQ transport, trans-stimulation by injected solute / Trans-stimulation data: total [3H]CQ transport / Trans-stimulation: total [3H]CQ transport, PfCRTEcu1110 oocytes: footnote b: highest intracellular concentration tested was 30 mM (solubility); for Trans-stimulation data: total [3H]CQ transport: normalised to the oocyte type control (control = 100); for Trans-stimulation data: PfCRT-mediated [3H]CQ transport: footnote b: due to solubility the highest intracellular concentration tested was 30 mM, normalised to the oocyte type control = 100; for Trans-stimulation: total [3H]CQ transport, PfCRTEcu1110 oocytes: mean ± SEM, SEM
How it was run: as §1

non-expressing oocytes [1] = type: cell-based, Xenopus laevis; conditions: for Total [3H]CQ transport, trans-stimulation by injected solute / Trans-stimulation data: total [3H]CQ transport: non-expressing oocytes; for Total [3H]CQ transport, trans-stimulation by injected solute / Trans-stimulation data: total [3H]CQ transport / Trans-stimulation: total [3H]CQ transport, non-expressing oocytes: footnote b: highest intracellular concentration tested was 30 mM (solubility); for Trans-stimulation data: total [3H]CQ transport: normalised to the oocyte type control (control = 100); for Trans-stimulation: total [3H]CQ transport, non-expressing oocytes: mean ± SEM, SEM
Procedure: (§2) Unless specified otherwise, the transport assays were conducted over 1.5 h at 27.5 °C and the reaction buffer was ND96 (96 mM NaCl, 2 mM KCl, 1 mM MgCl2, 1.8 mM CaCl2, 10 mM MES and 10 mM Tris-base) at pH 5.5.
The intracellular concentrations were calculated using previous estimates of the volume of stage V–VI oocytes (~400 nL[60]). […] The oocytes were injected with VF-6 suspended in 25 nL ND96 buffer adjusted to pH 5.0, 5.5, 6.0 or 7.0, which corresponded to the injection of 2.5–250 fmol of H^+. The Na^+-dependence of the trans-stimulatory effect of VF-6 was assessed by injecting the oocytes with VF-6 suspended in ND96 buffer (pH 5.5) or a Na^+-free version of this buffer (the Na^+ was replaced with choline).
(§3) At least four independent experiments were performed (on different days and using oocytes from different frogs), and within each experiment measurements were made from ten oocytes per treatment.

non-expressing oocytes [2] = test: cells; type: cell-based, Xenopus laevis
Excerpt: The orientation of PfCRT in the parasite’s DV membrane, and also in the oocyte plasma membrane, is such that its N- and C-termini extend into the cytosol. The oocytes were suspended in a reaction buffer adjusted to pH 5.5 to mimic the pH of the DV lumen[1],[2]. In this scenario, the transport of a substrate via PfCRT from the acidic extracellular solution into the oocyte cytosol[15] is analogous to the parasite’s PfCRT-mediated efflux of a substrate from the acidic DV and into the cytosol. Unless specified otherwise, this is the direction in which substrate transport was measured in the oocyte assays.
as §2
Ten oocytes were washed twice with the relevant ND96 buffer. […] The assay was terminated by removing the reaction buffer and washing the oocytes with ice-cold ND96 buffer. The oocytes were lysed in 10% (w/v) sodium dodecyl sulfate (SDS) and the radioactivity accumulated within each oocyte was measured with a MicroBeta^2 microplate liquid scintillation analyser (PerkinElmer).
as §3

Chain of PfCRT^Dd2 (Q9N623 whole entry A220S/I356T/K76T/M74I/N326S/N75E/Q271E/R371I): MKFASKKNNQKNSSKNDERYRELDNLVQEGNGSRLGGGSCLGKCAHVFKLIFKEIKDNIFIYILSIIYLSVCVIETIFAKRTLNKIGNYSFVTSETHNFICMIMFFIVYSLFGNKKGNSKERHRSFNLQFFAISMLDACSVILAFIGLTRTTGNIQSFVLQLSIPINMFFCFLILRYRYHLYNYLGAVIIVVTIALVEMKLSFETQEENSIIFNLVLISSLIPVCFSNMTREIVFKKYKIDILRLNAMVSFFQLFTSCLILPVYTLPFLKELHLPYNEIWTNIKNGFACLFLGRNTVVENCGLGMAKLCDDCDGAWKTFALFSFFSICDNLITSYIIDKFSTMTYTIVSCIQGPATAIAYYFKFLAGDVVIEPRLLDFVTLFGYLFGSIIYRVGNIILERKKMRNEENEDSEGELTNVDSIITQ
T1 sequence (Q8IDM6 whole entry): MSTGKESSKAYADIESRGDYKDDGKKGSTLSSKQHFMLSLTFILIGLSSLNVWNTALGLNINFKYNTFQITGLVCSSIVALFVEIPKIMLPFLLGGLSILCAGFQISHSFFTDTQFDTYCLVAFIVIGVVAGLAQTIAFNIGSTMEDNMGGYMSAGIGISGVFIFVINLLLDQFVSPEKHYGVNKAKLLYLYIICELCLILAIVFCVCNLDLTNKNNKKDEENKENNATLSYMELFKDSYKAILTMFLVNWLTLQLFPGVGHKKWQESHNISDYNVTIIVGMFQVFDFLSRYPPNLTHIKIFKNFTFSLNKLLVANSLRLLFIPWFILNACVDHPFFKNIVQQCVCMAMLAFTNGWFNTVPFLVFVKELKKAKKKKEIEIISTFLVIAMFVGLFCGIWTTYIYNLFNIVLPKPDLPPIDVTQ
Chain of PfCRT^3D7 (Q8IBZ9 59-398): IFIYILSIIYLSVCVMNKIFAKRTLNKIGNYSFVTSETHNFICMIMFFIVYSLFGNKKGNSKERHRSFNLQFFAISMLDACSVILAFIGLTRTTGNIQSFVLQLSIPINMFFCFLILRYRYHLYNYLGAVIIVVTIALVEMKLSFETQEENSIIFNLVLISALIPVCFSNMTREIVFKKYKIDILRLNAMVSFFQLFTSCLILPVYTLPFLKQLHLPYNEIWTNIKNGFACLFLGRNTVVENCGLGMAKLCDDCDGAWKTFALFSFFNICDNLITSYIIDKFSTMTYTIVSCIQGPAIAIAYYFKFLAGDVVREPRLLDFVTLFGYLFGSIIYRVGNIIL
Chain of PfCRT^Ecu1110 (Q9N623 whole entry A220S/I356L/K76T/N326D): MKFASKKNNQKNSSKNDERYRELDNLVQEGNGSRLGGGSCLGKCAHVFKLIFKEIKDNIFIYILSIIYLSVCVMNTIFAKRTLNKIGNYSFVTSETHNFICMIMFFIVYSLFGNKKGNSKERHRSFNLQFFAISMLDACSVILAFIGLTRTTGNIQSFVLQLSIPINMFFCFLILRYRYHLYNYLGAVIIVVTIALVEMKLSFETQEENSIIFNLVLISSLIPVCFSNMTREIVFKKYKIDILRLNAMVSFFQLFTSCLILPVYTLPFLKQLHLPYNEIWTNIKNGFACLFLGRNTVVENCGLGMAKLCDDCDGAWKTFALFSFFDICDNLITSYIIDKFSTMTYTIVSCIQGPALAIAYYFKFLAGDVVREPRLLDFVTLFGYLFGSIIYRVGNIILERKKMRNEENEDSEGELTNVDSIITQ

Compound | Total [3H]CQ transport, trans-stimulation by injected solute (PfCRT^Dd2) | Trans-stimulation data: total [3H]CQ transport (PfCRT^Dd2) [b] | PfCRT-mediated [3H]CQ transport, trans-stimulation by injected solute, PfCRTDd2 (PfCRT^Dd2) | Trans-stimulation data: PfCRT-mediated [3H]CQ transport (PfCRT^Dd2) [b] | Trans-stimulation data: PfCRT-mediated [3H]CQ transport (PfCRT^3D7) [b] | Total [3H]CQ transport, trans-stimulation by injected solute (PfCRT^3D7) | Trans-stimulation data: total [3H]CQ transport (PfCRT^3D7) [b] | Total [3H]CQ transport, trans-stimulation by injected solute (PfNT1) | Trans-stimulation data: total [3H]CQ transport (PfNT1) [b] | Total [3H]CQ transport, trans-stimulation by injected solute (PfCRT^Ecu1110) | Trans-stimulation data: total [3H]CQ transport (PfCRT^Ecu1110) [b] | Trans-stimulation data: PfCRT-mediated [3H]CQ transport (PfCRT^Ecu1110) [b] | Total [3H]CQ transport, trans-stimulation by injected solute (non-expressing oocytes [1]) | Trans-stimulation data: total [3H]CQ transport (non-expressing oocytes [1]) [b] | Trans-stimulation: total [3H]CQ transport, PfCRTDd2 oocytes (PfCRT^Dd2) | Trans-stimulation: total [3H]CQ transport, PfCRT3D7 oocytes (PfCRT^3D7) | Trans-stimulation: total [3H]CQ transport, PfNT1 oocytes (PfNT1) | Trans-stimulation: total [3H]CQ transport, PfCRTEcu1110 oocytes (PfCRT^Ecu1110) | Trans-stimulation: total [3H]CQ transport, non-expressing oocytes (non-expressing oocytes [1]) | other results
SFGDLSTPDAVMG [SG-13] | 100 ± 2.9b % of the PfCRTDd2 control | 100 ± 2.9 | 98 ± 3.0b % of PfCRTDd2 control | 98 ± 3.0 | 97 ± 1.9 | 3.1 ± 0.05b % of the PfCRTDd2 control | 99 ± 2.5 | 2.9 ± 0.09b % of the PfCRTDd2 control | 98 ± 2.4 | 33 ± 1.4b % of the PfCRTDd2 control | 101 ± 2.4 | 99 ± 1.8 | 3.0 ± 0.04b % of the PfCRTDd2 control | 100 ± 3.6 |  |  |  |  |  | 
LTPEEKSAVTALWGKVNVDEVGGEA [LA-25, additional peptide, 25 residues] | 100 ± 3.3b % of the PfCRTDd2 control | 100 ± 3.3 | 97 ± 3.3b % of PfCRTDd2 control | 97 ± 3.3 | 97 ± 3.1 | 3.1 ± 0.02b % of the PfCRTDd2 control | 99 ± 2.6 | 2.7 ± 0.07b % of the PfCRTDd2 control | 101 ± 4.1 | 33 ± 1.8b % of the PfCRTDd2 control | 101 ± 4.3 | 98 ± 4.2 | 2.5 ± 0.04b % of the PfCRTDd2 control | 101 ± 3.3 |  |  |  |  |  | 
C[N+](C)(C)CCO [Choline] |  |  |  |  |  |  |  |  |  |  |  |  |  |  |  |  |  |  |  | Trans-stimulation data: total [3H]CQ transport, normalised to the oocyte type control (non-expressing oocytes [1]): 99 ± 2.8 and 100 ± 2.6; Cis-inhibition data: total [3H]CQ transport, normalised to the oocyte type control (non-expressing oocytes [2]): 100 ± 5.4 and 99 ± 4.3 and 98 ± 3.6
LTPEEKSAVTAL [LL-12] |  | 100 ± 2.8 | 98 ± 1.1b % of PfCRTDd2 control | 98 ± 1.1 | 97 ± 3.4 |  | 99 ± 2.7 |  | 99 ± 2.5 |  | 100 ± 2.2 | 98 ± 1.7 |  | 99 ± 2.4 | 100 ± 2.8b % of PfCRTDd2 control | 3.1 ± 0.05b % of PfCRTDd2 control | 2.2 ± 0.06b % of PfCRTDd2 control | 33 ± 1.0b % of PfCRTDd2 control | 3.2 ± 0.08b % of PfCRTDd2 control | 
GTFATLSELHCDK [GK-13] |  | 97 ± 2.7 | 95 ± 1.3b % of PfCRTDd2 control | 95 ± 1.3 | 98 ± 4.1 |  | 100 ± 3.6 |  | 99 ± 2.7 |  | 99 ± 2.2 | 97 ± 1.9 |  | 100 ± 3.8 | 97 ± 2.7b % of PfCRTDd2 control | 3.1 ± 0.04b % of PfCRTDd2 control | 2.6 ± 0.04b % of PfCRTDd2 control | 32 ± 1.5b % of PfCRTDd2 control | 2.6 ± 0.05b % of PfCRTDd2 control | 
NAVAHVDDMPNALSALSDLH [NH-20, additional peptide, 20 residues] | 99 ± 2.8b % of the PfCRTDd2 control | 99 ± 2.8 | 97 ± 3.6b % of PfCRTDd2 control | 97 ± 3.6 | 95 ± 3.2 | 3.0 ± 0.05b % of the PfCRTDd2 control | 99 ± 3.5 | 3.2 ± 0.07b % of the PfCRTDd2 control | 100 ± 3.6 | 32 ± 1.7b % of the PfCRTDd2 control | 100 ± 3.5 | 97 ± 3.2 | 3.3 ± 0.07b % of the PfCRTDd2 control | 101 ± 4.8 |  |  |  |  |  | 
VEPSDTIENVK [VK-11] |  | 98 ± 3.8 | 96 ± 2.1b % of PfCRTDd2 control | 96 ± 2.1 | 158 ± 1.9 |  | 163 ± 3.2 |  | 98 ± 3.3 |  | 131 ± 2.1 | 127 ± 1.9 |  | 98 ± 2.5 | 98 ± 3.8b % of PfCRTDd2 control | 15 ± 0.3b % of PfCRTDd2 control | 2.7 ± 0.03b % of PfCRTDd2 control | 42 ± 2.1b % of PfCRTDd2 control | 3.1 ± 0.08b % of PfCRTDd2 control | 
DDEGDDDPVPLPNVNA [DA-16, additional peptide, 16 residues] | 99 ± 2.7b % of the PfCRTDd2 control | 99 ± 2.7 | 100 ± 1.9b % of PfCRTDd2 control | 100 ± 1.9 | 97 ± 2.2 | 3.1 ± 0.02b % of the PfCRTDd2 control | 100 ± 4.5 | 3.3 ± 0.07b % of the PfCRTDd2 control | 99 ± 2.4 | 33 ± 1.8b % of the PfCRTDd2 control | 99 ± 3.7 | 98 ± 2.9 | 2.6 ± 0.08b % of the PfCRTDd2 control | 98 ± 3.5 |  |  |  |  |  | 
NCCCNCCCCNCCCN [Spermine] |  |  |  |  |  |  |  |  |  |  |  |  |  |  |  |  |  |  |  | Trans-stimulation data: total [3H]CQ transport, normalised to the oocyte type control (non-expressing oocytes [1]): 99 ± 3.8 and 98 ± 2.9; Cis-inhibition data: total [3H]CQ transport, normalised to the oocyte type control (non-expressing oocytes [2]): 99 ± 3.7 and 99 ± 4.1 and 100 ± 4.8
